Key:
[1] = biological target: T1, tyrosine decarboxylase (TyrDC) (Enterococcus faecalis, UniProt P0DTQ4)
T1 sequence (P0DTQ4 1-620): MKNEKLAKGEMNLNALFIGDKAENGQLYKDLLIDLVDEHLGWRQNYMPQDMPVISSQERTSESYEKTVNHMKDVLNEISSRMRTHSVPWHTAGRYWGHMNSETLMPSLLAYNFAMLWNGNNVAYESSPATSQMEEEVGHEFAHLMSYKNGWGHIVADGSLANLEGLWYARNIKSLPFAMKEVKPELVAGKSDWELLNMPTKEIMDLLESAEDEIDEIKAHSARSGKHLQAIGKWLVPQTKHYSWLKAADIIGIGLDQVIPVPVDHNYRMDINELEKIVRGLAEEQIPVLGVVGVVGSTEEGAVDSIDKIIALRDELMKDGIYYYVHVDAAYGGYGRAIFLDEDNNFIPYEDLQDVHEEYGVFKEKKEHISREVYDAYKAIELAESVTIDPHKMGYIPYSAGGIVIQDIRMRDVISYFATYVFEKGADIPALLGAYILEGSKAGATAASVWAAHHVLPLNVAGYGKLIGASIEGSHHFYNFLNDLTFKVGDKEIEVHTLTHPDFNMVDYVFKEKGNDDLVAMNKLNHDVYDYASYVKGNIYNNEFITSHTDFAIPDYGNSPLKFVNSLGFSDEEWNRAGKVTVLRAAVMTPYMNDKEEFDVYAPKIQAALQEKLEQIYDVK

[2] = biological target: T1, tyrosine decarboxylase (TyrDC); assay: enzyme kinetics of TyrDC in vitro; type: biochemical

Q: `N[C@@H](Cc1ccc(O)c(O)c1)C(=O)O` [L-dopa] was tested. Which Km [1] did it give?
A: 1500 µM

Q: For `N[C@@H](Cc1ccc(O)cc1)C(=O)O` [L-tyrosine], which “enzyme kinetics of TyrDC in vitro” value [2] is on record?
A: In vitro characterization of TyrDC revealed a fivefold higher catalytic efficiency toward L-tyrosine compared with L-dopa
